Assay results from paper PMC4383003, “Transfer hydrogenation catalysis in cells as a new approach to anticancer drug design” (Nature Communications, 2015).

Columns and labels:
A2780 cells = experiment: Induction of necrosis (7-ADD flow cytometry); type: cell-based, human; conditions: A2780, complex 2 in presence and absence of 2 mM sodium formate, 24 h
Method: Flow cytometry analysis of necrosis in A2780 cells caused by exposure to complex 2 and sodium formate was carried out using a Apotosis/Necrosis detection kit (Abcam) according to the manufacturer’s instructions. […] Cells were harvested using trypsin and stained using the membrane-impermeable nuclear dye 7-ADD (Ex/Em 546/647 nm). After staining in the dark, cell pellets were analysed in a Becton Dickinson FACScan Flow Cytometer. For positive-necrosis controls, A2780 cells were exposed to methanol.

[1] = tested on: MRC5 human fetal lung fibroblasts; experiment: In vitro growth inhibition assay (SRB), MRC5; type: cell-based
Method: (§1) A2780 human ovarian carcinoma and MRC5 human fetal lung fibroblasts were obtained from the European Collection of Cell Cultures. Both cell lines were grown in Roswell Park Memorial Institute medium (RPMI-1640) supplemented with 10% of fetal calf serum, 1% of 2 mM glutamine and 1% penicillin/streptomycin. All cells were grown as adherent monolayers at 310 K in a 5% CO2-humidified atmosphere and passaged at ca. 70–80% confluency.
The antiproliferative activity of complexes 1–8 was determined in A2780 ovarian cancer cells and MRC5 fibroblasts. Briefly, 96-well plates were used to seed 5,000 cells per well. The plates were left to pre-incubate with drug-free medium at 310 K for 48 h before adding different concentrations of the compounds to be tested. A drug exposure period of 24 h was allowed. After this, supernatants were removed by suction and each well was washed with PBS. […]
Supplementary Table 10: Antiproliferative activity of complex 2 in A2780 ovarian cancer cells and normal MRC5 human fetal lung fibroblasts, when co-administered with different concentrations of sodium formate (0 and 2 mM). All the experiments were performed as duplicates of triplicates in independent experiments and the error bars were calculated as the standard deviation from the mean. […]

[2] = tested on: A2780 human ovarian cancer cells; experiment: In vitro growth inhibition assay (SRB), A2780; type: cell-based; conditions: A2780, 24 h drug exposure, no formate
Method: as §1
The antiproliferative activity of complexes 1–8 was determined in A2780 ovarian cancer cells and MRC5 fibroblasts. Briefly, 96-well plates were used to seed 5,000 cells per well. The plates were left to pre-incubate with drug-free medium at 310 K for 48 h before adding different concentrations of the compounds to be tested. A drug exposure period of 24 h was allowed. After this, supernatants were removed by suction and each well was washed with PBS. A further 72 h were allowed for the cells to recover in drug-free medium at 310 K. The sulforhodamine B (SRB) assay was used to determine cell viability. IC50 values, as the concentration that causes 50% cell death, were determined as duplicates of triplicates in two independent sets of experiments and their s.d. were calculated.

[3] = Transfer hydrogenation of NAD+ to 1,4-NADH with formate, followed by 1H NMR; conditions: NAD+ 2 mol equiv, formate 25 mol equiv, 310 K, pH* 7.2
Method: Complexes 1–7 were dissolved in MeOH-d4/D2O (5:1 v/v, 1.4 mM, 4 ml). Solutions of sodium formate (35 mM, 4 ml) and NAD^+ in D2O (2.8 mM, 2 ml) were also prepared and incubated at 310 K. In a typical experiment, 200-μl aliquots of each solution were added to a 5-mm NMR tube and the pH* adjusted to 7.2±0.1 (total volume 0.635 ml, final concentrations: Ru complex 0.44 mM; NAD^+ 0.88 mM; formate 11.02 mM; molar ratio 1:2:25). ^1H NMR spectra were recorded at 310 K every 162 s until the completion of the reaction.
Molar ratios of NAD^+ and NADH were determined by integrating the peaks at 9.33 and 6.96 p.p.m. (NAD^+ and 1,4-NADH, respectively). The turnover number for the reaction was calculated as follows: […]
where In is the integral of the signal at n p.p.m. and [NAD^+]0 is the concentration of NAD^+ at the start of the reaction.

[4] = pKa* of aqua adducts of the complexes; type: physicochemical; conditions: pKa value determined in deuterated solvent
Description: Table 1 pKa* values for aqua adducts of catalysts 1–4 (and 8 for comparison) and turnover frequencies for transfer hydrogenation of NAD^+ using formate. | column: pKa*

CT-DNA = experiment: Circular dichroism of CT-DNA; type: binding, calf; conditions: different concentrations of complex 2
Method: Supplementary Figure 4: Circular dichroism spectra of CT-DNA (1 mM) in red and CT-DNA (1 mM)/complex 2 (mol ratio 3:1) in black. Spectra were recorded under the same conditions, using (A) cacodylate buffer (2 mM, pH 7.4) and NaCl (20 mM) at 298 K, (B) PBS buffer (2 mM, pH 7.4) and NaCl (20 mM).
(1 picture or pasted object on this page, not shown here) […]
the nucleobases.11 Destabilization of DNA can result in a decrease of the melting […]
In the presence of complex 8, the melting temperature of CT-DNA increased In agreement with the literature, 12 by 14 K, in 2 mM NaCl, 2 mM cacodylate buffer.
This increase is due to Ru binding to DNA as well as intercalation. 12 However, upon increasing the chloride concentration by ca. 10x (20 mM NaCl) the melting temperature of CT-DNA in the presence of complex 8, increased only by 7 K. This effect has previously been reported and it is attributed to the partial inhibition of hydrolysis, and, therefore, inhibition of coordination to DNA. 12, 13
Experiments performed in the presence of complex 2, in 2 mM cacodylate buffer and […]
NaCl, no decrease of the melting temperature was observed. These experiments […]
Furthermore, strong binding to DNA can induce chirality in the metal complex, generating a CD signal. 14 CD spectra of CT-DNA in the presence of different concentrations of complex 2 were recorded (Supplementary Figure 4). […]

Cc1ccc(C(C)C)cc1.Cc1ccc(S(=O)(=O)[N-]CCN)cc1.[Cl-].[Ru+2] [Complex 2, [(p-cym)Ru(TsEn)Cl]]
induction of necrosis (A2780 cells): no cellular necrosis | IC50 ([1]; MRC5, formate 0 mM): 48.5 ± 0.4 µM | selectivity factor ([1]; ratio MRC5 fibroblasts / A2780, no formate): 3.6±0.2 | IC50 [2]: 13.6 ± 0.6 µM | TOF D2O/MeOH-d4 ([3]; 23% MeOH-d4/77% D2O): 2.88 ± 0.06 h⁻¹ | TOF D2O ([3]; D2O): 1.58 ± 0.04 h⁻¹ | pKa* [4]: 9.78±0.06 | changes in CD spectra of CT-DNA (CT-DNA): No changes
